# Experimental data: patent US12156859B2, “Methods of and compositions for treating obesity, obesity-related diseases or cancers using a N6-methyllysine/l-lysine mixture” (Tainnovation Inc, priority 2021, dated 2024)
# “Also recorded” adds a separate entry of the source.
# Key:
# DUSP6 / cold microbiota = assay: 16S rRNA microbiota analysis of BCI-CR versus Vehicle-CR mice (cold-room temperature transition); format: in vivo; details: during the cold-RT transition, BCI-CR vs Vehicle-CR, 16S rRNA sequencing
# Text: FIG. 1B illustrates the cold induced gut bacteria that is regulated by DUSP6 inhibition by injecting DUSP6 inhibitor, (E/Z)-BCI hydrochloride, into the mice underwent cold-room temperature (CR) transition.
# To search the potential Nε-Methyl-L-lysine producers in cold microbiota, we performed the microbiota analysis on 16S rRNA sequencing data of BCI-CR and Vehicle-CR microbiota.
# [1] = system: perigonadal white adipose tissue (pWAT) and inguinal white adipose tissue (iWAT); assay: Adipose tissues reducing experiment: 14-day oral administration to chow diet-fed mice, body weight and pWAT/iWAT mass; format: in vivo, male C57BL/6J mice; details: chow diet-fed male mice, fourteen days
# Description: To test the browning-activating and WAT-reducing abilities of Nε-Methyl-L-lysine, 8-week-old male C57BL/6J mice were orally administrated of L-lysine (150 mM), Nε-Methyl-L-lysine (150 mM) (100 ul/mouse/Day) or vehicle (water; 100 ul/mouse/Day) for 14 days.
# (§1) 14 days after treatment, the L-lysine (150 mM), Nε-Methyl-L-lysine (150 mM) (100 ul/mouse/Day) or vehicle (water; 100 ul/mouse/Day) treated mice were sacrificed and the perigonadal white adipose tissue (pWAT) and inguinal white adipose tissue (iWAT) were collected and weighted for measuring the reducing effects of L-lysine, Nε-Methyl-L-lysine and vehicle. To test the browning-activating abilities of L-lysine, Nε-Methyl-L-lysine and vehicle control in pWAT and iWAT of treated mice, total RNA of WAT was extracted by using RNeasy Lipid Tissue kits. The concentration and quality of RNA were measured by NanoDrop spectrophotometer. For qRT-PCR analysis of browning marker gene Ucp1 and beta-oxidation gene Cpt1b, complementary DNA was obtained by using M-MLV Reverse Transcriptase with oligo-dT primers. qRT-PCR was performed with SYBR-green master on a MyGo Pro PCR system.
# FIG. 6 illustrates a method of using Nε-Methyl-L-lysine to reduce the total mass of subcutaneous and perigonadal white adipose tissues without reducing total body weight. It is orally administered Nε-Methyl-L-lysine (100 μg Nε-Methyl-L-lysine/g body weight/per day, body weights before treatment, body weights 7 days after treatment, body weights 14 days after treatment) into eight weeks old male C57/BL6 mice for fourteen days. […] Data are presented as mean±SEM and significance is calculated by one-way ANOVA followed by Tukey's multiple comparison test. *P<0.05. **P<0.01.
# [2] = system: CDAHFD-induced NASH and liver fibrosis; assay: NASH and liver fibrosis test (CDAHFD-fed mice); format: in vivo, male C57BL/6J mice
# Description: (§2) Tissues were fixed in 4% neutral-buffered formalin (Sigma), paraffin-embedded, sectioned, and stained with hematoxylin and eosin (H&E) or subjected to immunohistochemistry analysis. For adipose tissue, the 5 μm FFPE sections of pWAT and iWAT were deparaffinated and stained with H&E. The mean adipocyte area and adipocyte size distribution were determined by using Adiposoft software. For quantifying lipid droplets in liver tissues, the 5 μm FFPE liver sections were deparaffinated and stained with H&E. The mean lipid droplets area was determined by using Image J software.
# Groups of 6-week-old male C57BL/6J mice were fed in choline-deficient, L-amino acid-defined, high-fat diet (CDAHFD; #A06071302) purchased from Research Diets (New Brunswick, NJ, USA) or chow diet for 4 weeks. After two weeks of CDAHFD treatment, mice were orally administrated L-lysine (150 mM), Nε-Methyl-L-lysine (150 mM) (100 ul/mouse/Day) or vehicle (water; 100 ul/mouse/Day) for 14 days with continuing CDAHFD treatment. Bodyweight was measured weekly. After sacrifice, the serum of mice was collected and stored at −80° ° C. The serum levels of aspartate aminotransferase (AST) and alanine aminotransferase (ALT) were measured with biochemistry slides for a chemistry analyzer (FUJI DRI-CHEM 4000i, Fujifilm Corporation, Japan). For hepatic fibrosis staining, the 5 μm FFPE liver sections were deparaffinated and stained with a Trichrome staining kit according to the manufacturer's instructions.
# 8-weeks old male C57BL/6 mice are fed with a choline-deficient, L-amino acid-define, high-fat diet (CDAHFD) (Research Diet, Inc. […]) for 4 weeks to induce NASH and liver fibrosis. During the third and fourth week of CDAHFD treatment, it is orally administered Nε-Methyl-L-lysine (100 μg Nε-Methyl-L-lysine/g body weight/per day) into mice for fourteen days. […] Data are presented as mean±SEM. Kruskal-Wallis test is used in FIG. 4 (a and b) Mann-Whitney t-tests are used in FIG. 4 (c and d) to indicate significant differences between groups. *P<0.05. *P<0.005. *P<0.0005. *P<0.00005.
# [3] = system: adipocytes of pWAT and iWAT; assay: Histological examination of pWAT and iWAT (H&E, Adiposoft adipocyte area and size distribution); format: in vivo, male C57BL/6J mice; details: vs vehicle
# Description: as §2
# gut microbiota = assay: Gut microbiota control experiment (14-day oral administration); format: in vivo, male C57/BL6 mice
# Description: 14 days after treatment, the fecal pellets of L-lysine (150 mM), Nε-Methyl-L-lysine (150 mM) (100 ul/mouse/Day) or vehicle (water; 100 ul/mouse/Day) treated mice were collected for DNA extraction. PCR amplification was performed on extracted DNA for 16s rDNA amplicons by using the primers targeting the V3-V4 region (primer set: 341F-805R). 16s rRNA amplicons were sequenced on an Illumina Miseq platform and generated 300 bp paired-end reads. Raw data were obtained with barcodes sequences cleaned up. The sequencing data was analyzed using the QIIME 2 platform (version: 2020.8).
# (§3) It is orally administered Nε-Methyl-L-lysine (100 μg Nε-Methyl-L-lysine/g body weight/per day) into eight weeks old male C57/BL6 mice for fourteen days. Fourteen days after treatment, perigonadal adipose tissues of vehicle (H2O) treated mice and Nε-Methyl-L-lysine treated mice were collected for qPCR analyses. […] Data are presented as mean±SEM. Mann-Whitney t-tests are used to indicate significant differences between groups. *P<0.05.
# [4] = system: differentiated 3T3-L1 adipocytes; assay: Cell differentiation experiment: Oil Red-O lipid staining and Ucp1 qPCR; format: cell-based; details: 150 μM
# Description: The differentiation of 3T3-L1 cells was performed by using 3T3-L1 DIFFERENTIATION KIT (DIF001, Merck). After differentiation, cells were maintained in a complete medium containing […] Nε-Methyl-L-lysine and vehicle control for 7 days before the harvest. After treatments, cells were subjected to RNA extraction and qPCR analysis of Ucp1 and Cpt1b mRNA expression. For quantifying the lipid accumulation in cells, cells were fixed with in 4% neutral-buffered formalin and stained with Oil Red-O reagent.
# FIG. 5 illustrates a method of using Nε-Methyl-L-lysine to inhibit lipid storage and promote adipose browning in differentiated 3T3-L1 adipocytes in accordance with some embodiments. 3T3-L1 cells (SP-L1-F) are purchased from a commercial available source. It is maintained and differentiated 3T3-L1 preadipocytes. After differentiation, differentiated 3T3-L1 adipocytes are treated by post-differentiation medium containing vehicle (H2O) or Nε-Methyl-L-lysine (150 μM). […] Data are collected from three independent experiments (FIGS. 5a and 5b) and presented as mean±SEM. Mann-Whitney t-tests are used to indicate significant differences between groups. *P<0.05. **P<0.01. ****P<0.0001.
# Ucp1 and Cpt1b = assay: qRT-PCR of browning marker gene Ucp1 and beta-oxidation gene Cpt1b in white adipose tissue of treated mice; format: in vivo, male C57BL/6J mice; details: perigonadal adipose tissue, 14 days after oral treatment, qPCR, vs vehicle
# Description: as §1
# as §3, with “Beiging and β-oxidation are two major fat-burning mechanism of white adipose tissues controlled by the expression of Ucp-1 and CPT-1 gene respectively. […] It” for “It”, “14” for “Fourteen”, “are” for “were”
# [5] = CDAHFD 4 weeks, oral treatment during third and fourth week
# [6] = 100 μg/g body weight/per day oral, fourteen days, vs vehicle
smiles,measurement,setting,value
Cl.O=C1/C(=C/c2ccccc2)C(NC2CCCCC2)c2ccccc21 (mixture of isomers) [(E/Z)-BCI hydrochloride],"abundance of Lachospiraceae bacterium, Marvinbryantia uncultured bacterium, Peptococcaceae uncultured bacterium, Bifidobacterium pseudolongum and Gordonnibacter uncultured bacterium",DUSP6 / cold microbiota,significantly regulates the abundance
NCCCC[C@H](N)C(=O)O [L-lysine],total mass of iWAT (subcutaneous white adipose tissues),[1],did not show significant effects
same,total mass of pWAT (perigonadal white adipose tissues),[1],did not show significant effects
same,"serum ALT level, CDAHFD compared with chow-diet fed mice",[2]; [5],significantly increased
same,"serum AST level, CDAHFD compared with chow-diet fed mice",[2]; [5],significantly increased
CNCCCC[C@H](N)C(=O)O [Nε-Methyl-L-lysine],mean adipocyte area and distribution of adipocyte size of pWAT and iWAT,[3]; Adiposoft software,significantly reduced
same,adipocyte size in iWAT (histological examination),[3]; H&E sections,significantly reduced adipocyte size
same,adipocyte size in pWAT (histological examination),[3]; H&E sections,significantly reduced adipocyte size
same,number of bacteria classified in the Actinobacteria phylum in gut,gut microbiota; [6],capable of increasing the number
same,number of bacteria classified in the Bacilli class in gut,gut microbiota; [6],capable of increasing the number
same,number of bacteria classified in the Bacteroidia phylum in gut,gut microbiota; [6],capable of increasing the number
same,number of bacteria classified in the Bifidobacterium genus in gut,gut microbiota; [6],capable of increasing the number
same,number of bacteria classified in the Coriobacteriia class in gut,gut microbiota; [6],capable of increasing the number
same,number of bacteria classified in the Lactobacillus genus in gut,gut microbiota; [6],capable of increasing the number
same,number of bacteria classified in the Saccharimonadia class in gut,gut microbiota; [6],capable of increasing the number
same,number of bacteria classified in the Verrucomicrobiota phylum in gut,gut microbiota; [6],capable of increasing the number
same,total bacterial load,gut microbiota; [6],capable of increasing the total bacterial load
same,number or relative percentage of Akkernmansia muciniphilla in gut,gut microbiota; FIG. 8j,increase the number or relative percentage
same,sensitivity of visceral pWAT versus subcutaneous iWAT to the substance,[1],higher sensitivity
same,total mass of iWAT (subcutaneous white adipose tissues),[1],dramatically reduced
same,total mass of pWAT (perigonadal white adipose tissues),[1],dramatically reduced
same,body weight,"[1]; 150 mM 100 ul/mouse/Day (100 μg/g body weight/per day), vs vehicle or L-lysine",did not significantly change the body weight; also recorded: did not change the mice body weights
same,"serum ALT level, CDAHFD compared with chow-diet fed mice",[2]; [5],significantly increased
same,"reducing AST/ALT ratio, compared with lysine",[2]; mice fed with a CDAHFD,better effect than lysine
same,"reducing serum AST level, compared with lysine",[2]; mice fed with a CDAHFD,better effect than lysine
same,liver lipid droplets,"[2]; mice fed with a CDAHFD, oral 14 days",promising effect on reducing
same,liver fibrosis,"[2]; mice fed with a CDAHFD, oral 14 days, trichrome stain",promising effect on reducing
same,lipid storage (oil-red O staining),[4]; vs vehicle (H2O),significantly reduce lipid storage
same,browning marker Ucp-1 expression,[4]; vs vehicle-treated cells,significantly induce
same,expression of Cpt1b (β-oxidation marker gene) in pWAT,Ucp1 and Cpt1b,significantly induced the expression
same,expression of Ucp-1 (browning marker gene) in pWAT,Ucp1 and Cpt1b,significantly induced the expression
same,expression of Cpt1b (β-oxidation marker gene) in pWAT,Ucp1 and Cpt1b; listed as Nε-Methyl−1-lysine,enhanced the expression
same,expression of Ucp-1 (browning marker gene) in pWAT,Ucp1 and Cpt1b; listed as Nε-Methyl−1-lysine,enhanced the expression
